From article PMC10127588 (mBio, 2023)
“Also recorded” adds a separate entry of the source. Read-outs that look alike come from different tables or passages of the source.

Key:
Mps1 [1] = target: T1, Mps1 (Pyricularia oryzae, UniProt G4N374); assay: biochemical; format: binding, Magnaporthe oryzae
Mps1 [2] = target: T1, Mps1; format: biochemical, Magnaporthe oryzae
Mpk1 [3] = target: T2, Mpk1 (Fusarium oxysporum, UniProt X0BN28); assay: biochemical; format: binding
Mpk1 [4] = target: T2, Mpk1; format: biochemical
Pmk1 = Pmk1 (Pyricularia oryzae, UniProt G4N0Z0); format: binding, Magnaporthe oryzae
M. oryzae conidia [5] = format: cell-based, Magnaporthe oryzae
M. oryzae conidia [6] = format: cell-based, Magnaporthe oryzae; remark: listed apart in the source
M. oryzae [7] = test system: M. oryzae; design: species or system Magnaporthe oryzae; details: in vivo
M. oryzae [8] = test system: M. oryzae; design: species or system Magnaporthe oryzae; details: in vivo; remark: listed apart in the source
M. oryzae [9] = format: cell-based
M. oryzae [10] = format: cell-based; remark: listed apart in the source
M. oryzae [11] = format: cell-based; remark: listed apart in the source
Itk = details: read-out: affinity; cited from earlier work
Src = details: read-out: affinity; cited from earlier work
M. oryzae conidia [12] = details: cited from earlier work

T1 sequence (G4N374 whole entry, looked up): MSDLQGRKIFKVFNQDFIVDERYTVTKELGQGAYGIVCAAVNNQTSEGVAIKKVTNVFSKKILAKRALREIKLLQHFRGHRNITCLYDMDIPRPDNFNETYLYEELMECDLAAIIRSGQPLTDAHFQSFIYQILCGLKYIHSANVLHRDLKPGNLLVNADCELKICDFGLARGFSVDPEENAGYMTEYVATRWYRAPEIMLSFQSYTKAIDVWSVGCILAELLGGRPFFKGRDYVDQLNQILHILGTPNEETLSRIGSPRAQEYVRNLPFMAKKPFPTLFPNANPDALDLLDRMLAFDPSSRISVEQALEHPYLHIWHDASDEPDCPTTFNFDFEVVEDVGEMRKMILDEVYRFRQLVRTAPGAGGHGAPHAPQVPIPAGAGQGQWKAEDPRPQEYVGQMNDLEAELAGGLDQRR
Chain of Pmk1 (G4N0Z0 whole entry, looked up): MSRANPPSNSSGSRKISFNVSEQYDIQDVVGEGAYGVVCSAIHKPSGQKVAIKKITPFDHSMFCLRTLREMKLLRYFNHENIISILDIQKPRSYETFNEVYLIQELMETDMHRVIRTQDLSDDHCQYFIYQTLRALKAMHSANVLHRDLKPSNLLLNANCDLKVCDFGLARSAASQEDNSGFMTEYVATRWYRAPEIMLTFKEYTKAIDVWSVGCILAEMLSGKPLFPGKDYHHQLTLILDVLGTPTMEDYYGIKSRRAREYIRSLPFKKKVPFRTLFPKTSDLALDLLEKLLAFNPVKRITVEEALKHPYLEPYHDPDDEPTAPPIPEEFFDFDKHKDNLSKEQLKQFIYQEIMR

For `CNC(=O)[C@H](Cc1c[nH]c2ccccc12)NC(=O)c1ccc2cncc(-c3cc(OC(F)(F)F)ccc3OC)c2n1` [A378-0], the Kd (Mps1 [1]) was 69.2 µM, the “kinase activity of Mps1” value (Mps1 [2]) was “suppressed the kinase activity of Mps1” and the Kd (Mpk1 [3]) was 70.3 µM. For the same compound, the “kinase activity of Mpk1” value (Mpk1 [4]) was “can inhibit the kinase activity of Mpk1”, the “binding to Pmk1” value (Pmk1) was “nonspecific binding” and the “germination and appressorium formation of conidia” value (M. oryzae conidia [5]) was “could not inhibit the germination and appressorium formation”. The “appressorium penetration (penetration peg formation)” value (M. oryzae conidia [6]) was “did not form a penetration peg”, the “concentration at which conidia were completely nonpathogenic” value (M. oryzae [7]) was 150 µg/mL and the “concentration from which inhibition of M. oryzae virulence is observed” value (M. oryzae [7]) was 50 µg/mL. For the same compound, the “virulence on barley leaves” value (M. oryzae [8]) was “exhibits inhibition of M. oryzae virulence on barley leaves”, the “conidiation reduced to” value (M. oryzae [9]) was “about 40%” and the “autolysis on the culture dish” value (M. oryzae [10]) was “progressive autolysis was observed”. For the same compound, the “sensitivity to lysing enzyme (cell wall integrity)” value (M. oryzae [11]) was “readily reduced to spheroplasts”.
For adenylyl imidodiphosphate [AMP-PNP], the “binding to Mps1” value (Mps1 [1]) is given as “does not interact with Mps1; also recorded: no binding was detected”, the Kd (Mps1 [1]; read-out: KD) is given as < 500 µM and the Kd (Itk) is given as 7.9 mM. For the same compound, the Kd (Src) was 2.54 mM.
In the case of `CC(C)OC(=O)C(C(=O)OC(C)C)=C1SCCS1` [Isoprothiolane, diisopropyl 2-(1,3-dithiolan-2-ylidene)malonate], the “concentration that can inhibit appressorium penetration” value (M. oryzae conidia [12]) is given as 20 µg/mL.
